According to patent US7732468B2, “3-aryl-6-aryl-[ 1,2,4]triazolo[3,4-b][1,3,4]thiadiazoles and related compounds as activators of caspases and inducers of apoptosis and the use thereof” (Cytovia, Inc., priority 2006, dated 2010):

How the values were obtained:
Assay type in all cases: cell-based
[1] = test system: Human breast cancer cell lines T-47D; test: Caspase cascade activation (Ac-DEVD-R110 fluorogenic substrate) in T-47D cells; conditions: T47D cells, 48 h incubation, read-out: caspase potency EC50 T47D
Description: (§1) Human breast cancer cell lines T-47D, human hepatocellular carcinoma cell line SNU398, human colon carcinoma cell line HCT116, human cancer cell line H11299, human Burkitt's lymphoma cell line Namalwa, human lymphoma cell line Raji, and human B cell lymphoblastoid cell line Ramos were grown according to media component mixtures designated by American Type Culture Collection+10% FCS (Invitrogen Corporation), in a 5% CO2-95% humidity incubator at 37° C. T-47D and H1299 cells were maintained at a cell density between 50 and 80% confluency at a cell density of 0.1 to 0.6×10^6 cells/mL. Cells were harvested at 600×g and resuspended at 0.65×10^6 cells/mL into appropriate media+10% FCS. An aliquot of 22.5 μL of cells was added to a well of a 384-well microtiter plate containing 2.5 μL of a 10% DMSO in RPMI-1640 media solution containing 0.16 to 100 μM of 6-(3,4-dimethoxyphenyl)-3-(2-methoxyphenyl)-[1,2,4]triazolo[3,4-b][1,3,4]thiadiazole or other test compound (0.016 to 10 μM final). An aliquot of 22.5 μL of cells was added to a well of a 384-well microtiter plate containing 2.5 μL of a 10% DMSO in RPMI-1640 media solution without test compound as the control sample. The samples were mixed by agitation and then incubated at 37° C. for 48 h in a 5% CO2-95% humidity incubator. After incubation, the samples were removed from the incubator and 25 μL of a solution containing 14 μM of N-(Ac-DEVD)-N′-ethoxycarbonyl-R110 (SEQ ID No.:1) fluorogenic substrate (Cytovia, Inc.; WO99/18856), 20% sucrose (Sigma), 20 mM DTT (Sigma), 200 mM NaCl (Sigma), 40 mM Na PIPES buffer pH 7.2 (Sigma), and 500 μg/mL lysolecithin (Calbiochem) was added. The samples were mixed by agitation and incubated at room temperature. Using a fluorescent plate reader (Model SPECTRAfluor Plus, Tecan), an initial reading (T=0) was made approximately 1-2 min after addition of the substrate solution, employing excitation at 485 nm and emission at 530 nm, to determine the background fluorescence of the control sample. After the 3 h incubation, the samples were read for fluorescence as above (T=3 h).
(§2) The Relative Fluorescence Unit values (RFU) were used to calculate the sample readings as follows: RFU(T=3h)−Control RFU(T=0)=Net RFU(T=3h)
(§3) The activity of caspase cascade activation was determined by the ratio of the net RFU value for 6-(3,4-dimethoxyphenyl)-3-(2-methoxyphenyl)-[1,2,4]triazolo[3,4-b][1,3,4]thiadiazole (Example I) or other test compound to that of control samples. The EC50 (nM) was determined by a sigmoidal dose-response calculation (Prism 3.0, GraphPad Software Inc.).

[2] = test system: human colon carcinoma cell line HCT116; test: Caspase cascade activation in HCT116 cells; conditions: HCT-116, 48 h incubation, read-out: caspase potency EC50 HCT116
Description: as §1, §2, §3

[3] = test system: human lymphoma cell line Raji; test: Caspase cascade activation in Raji cells; conditions: RAJ1 cells, 48 h incubation, read-out: caspase potency EC50 RAJ1
Description: as §1, §2, §3

[4] = test system: human B cell lymphoblastoid cell line Ramos; test: Caspase cascade activation in Ramos cells; conditions: 48 h incubation, read-out: caspase potency EC50 RAMOS
Description: as §1, §2, §3

[5] = test system: human hepatocellular carcinoma cell line SNU398; test: Caspase cascade activation in SNU398 cells; conditions: SNU-398, 48 h incubation, read-out: caspase potency EC50 SNU398
Description: as §1, §2, §3

[6] = test system: human Burkitt's lymphoma cell line Namalwa; test: Caspase cascade activation in Namalwa cells; conditions: Burkitts lymphoma cell, 48 h incubation, read-out: caspase potency EC50 Namalwa
Description: as §1, §2, §3

[7] = test system: human colon carcinoma cell line HCT116; test: Inhibition of cell proliferation (GI50) in HCT116 cells; conditions: HCT 116 cells, 48 h incubation
Description: (§4) Human breast cancer cell lines T-47D, MX1 and MDAMB435, human colon carcinoma cell line HCT116, human leukemia cell line K562, human lymphoma cell line Raji, human B cell lymphoblastoid cell line Ramos, and human Burkitt's lymphoma cell line Namalwa were grown and harvested as in Example 14. An aliquot of […] of cells (4.4×10^4 cells/mL) was added to a well of a 96-well microtiter plate containing 5 μL of a 10% DMSO in RPMI-1640 media solution containing 10 nM to 100 μM of 6-(3,4-dimethoxyphenyl)-3-(2-methoxyphenyl)-[1,2,4]triazolo[3,4-b][1,3,4]thiadiazole (1 nM to 10 μM final). An aliquot of 45 μL of cells was added to a well of a 96-well microtiter plate containing 5 μL of a 10% DMSO in RPMI-1640 media solution without compound as the control sample for maximal cell proliferation (LMax). The samples were mixed by agitation and then incubated at 37° C. for 48 h in a 5% CO2-95% humidity incubator. After incubation, the samples were removed from the incubator and 25 μL of CellTiter-Glo™ reagent (Promega) was added. The samples were mixed by agitation and incubated at room temperature for 10-15 min. Plates were then read using a luminescent plate reader (Model SPECTRAfluor Plus, Tecan) to give Ltest values.
(§5) The samples were mixed by agitation and then incubated at 37° C. for 0.5 h in a 5% CO2-95% humidity incubator. After incubation, the samples were removed from the incubator and 25 μL of CellTiter-Glo™ reagent (Promega) was added. The samples were mixed by agitation and incubated at […] 10-15 min at room temperature in a 5% CO2-95% humidity incubator. Fluorescence was read as above, (LStart) defining luminescence for initial cell number used as baseline in GI50 determinations.
(§6) GI50 (dose for 50% inhibition of cell proliferation) is the concentration where [(LTest−LStart)/(LMax−LStart)]=0.5.

[8] = test system: human Burkitt's lymphoma cell line Namalwa; test: Inhibition of cell proliferation (GI50) in Namalwa cells; conditions: Burkitts lymphoma cell, 48 h incubation
Description: as §4, §5, §6

[9] = test system: human lymphoma cell line Raji; test: Inhibition of cell proliferation (GI50) in Raji cells; conditions: 48 h incubation
Description: as §4, §5, §6

[10] = test system: human B cell lymphoblastoid cell line Ramos; test: Inhibition of cell proliferation (GI50) in Ramos cells; conditions: 48 h incubation
Description: as §4, §5, §6

[11] = test system: human leukemia cell line K562; test: Inhibition of cell proliferation (GI50) in K562 cells; conditions: 48 h incubation
Description: as §4, §5, §6

| Structure (SMILES) | EC50 [1] [nM] | EC50 [2] [nM] | EC50 [3] [nM] | EC50 [4] [nM] | EC50 [5] [nM] | EC50 [6] [nM] | GI50 [7] [nM] | GI50 [8] [nM] | GI50 [9] [nM] | GI50 [10] [nM] | GI50 [11] [nM] |
| --- | --- | --- | --- | --- | --- | --- | --- | --- | --- | --- | --- |
| COc1cc(-c2nnc3sc(-c4ccc(C)c(C)c4)nn23)cc(OC)c1OC [Entry T, 6-(3,4-Dimethylphenyl)-3-(3,4,5-trimethoxyphenyl)-[1,2,4]triazolo[3,4-b][1,3,4]thiadiazole] | 517 | 336 | 490 | 314 | 297 | 611 | 906 | 500 | 559 | 137 | 131 |
| Cc1ccccc1-c1nnc2sc(-c3ccc(N(C)C)cc3)nn12 [Entry I1, 6-(4-Dimethylaminophenyl)-3-o-tolyl-[1,2,4]triazolo[3,4-b][1,3,4]thiadiazole] | 864 | 1330 | 634 | 558 | 596 | 510 | 1190 | 142 | 253 | 93 | 350 |
| CCN(CC)c1ccc(-c2nn3c(-c4ccccc4C)nnc3s2)cc1 [Entry F1, 6-(4-Diethylaminophenyl)-3-o-tolyl-[1,2,4]triazolo[3,4-b][1,3,4]thiadiazole] | 666 | 1720 | 1020 | 712 | 751 | 734 | 694 | 372 | 801 | 113 | 303 |
| CCN(CC)c1ccc(-c2nn3c(-c4ccccc4Cl)nnc3s2)cc1 [Entry G1, 3-(2-Chlorophenyl)-6-(4-diethylaminophenyl)-[1,2,4]triazolo[3,4-b][1,3,4]thiadiazole] | 584 | 1380 | 627 | 575 | 455 | 593 | 492 | 149 | 405 | 41 | 155 |
| CN(C)c1ccc(-c2nn3c(-c4ccccc4Cl)nnc3s2)cc1 [Entry E1, 3-(2-Chlorophenyl)-6-(4-dimethylaminophenyl)-[1,2,4]triazolo[3,4-b][1,3,4]thiadiazole] | 1090 | 1200 | 573 | 325 | 556 | 327 | 2040 | 167 | 519 | 146 | 332 |
| COc1cccc(-c2nnc3sc(-c4ccc(N(C)C)cc4)nn23)c1 [Entry D1, 6-(4-Dimethylaminophenyl)-3-(3-methoxyphenyl)-1-[1,2,4]triazolo[3,4-b][1,3,4]thiadiazole] | 1390 | 2270 | 1410 | 1250 | 1650 | 1290 | 6830 | 1130 | 2600 | 647 | 1020 |
| COc1ccc(-c2nn3c(-c4cc(OC)c(OC)c(OC)c4)nnc3s2)cc1 [Entry S, 6-(4-Methoxyphenyl)-3-(3,4,5-trimethoxyphenyl)-[1,2,4]triazolo[3,4-b][1,3,4]thiadiazole] | 2420 | > 10000 | > 10000 | 2440 | > 10000 | > 10000 | > 10000 | > 10000 | > 10000 | 4990 | 1460 |
| COc1ccccc1-c1nnc2sc(-c3cc4ccccc4o3)nn12 [Entry A1, 6-(Benzofuran-2-yl)-3-(2-methoxyphenyl)-[1,2,4]triazolo[3,4-b][1,3,4]thiadiazole] | 662 | 321 | 198 | 115 | 160 | 92 | 2500 | 126 | 966 | 58 | 124 |

Continued, values first:

| EC50 [1] [nM] | EC50 [2] [nM] | EC50 [3] [nM] | EC50 [4] [nM] | EC50 [5] [nM] | EC50 [6] [nM] | GI50 [7] [nM] | GI50 [8] [nM] | GI50 [9] [nM] | GI50 [10] [nM] | GI50 [11] [nM] | Structure (SMILES) |
| --- | --- | --- | --- | --- | --- | --- | --- | --- | --- | --- | --- |
| > 10000 | > 10000 | > 10000 | 2320 | > 10000 | > 10000 | 5000 | > 10000 | 5000 | 3650 | 1600 | COc1ccc(-c2nn3c(-c4cc(OC)c(OC)c(OC)c4)nnc3s2)cc1OC [V, 6-(3,4-Dimethoxyphenyl)-3-(3,4,5-trimethoxyphenyl)-[1,2,4]triazolo[3,4-b][1,3,4]thiadiazole] |
| 2450 | 2670 | 688 | 532 | 2120 | 552 | 6040 | 2040 | 6730 | 1300 | 1880 | Clc1ccccc1-c1nnc2sc(-c3ccc4c(c3)OCCO4)nn12 [Q, 3-(2-Chlorophenyl)-6-(3,4-ethylenedioxyphenyl)-[1,2,4]triazolo[3,4-b][1,3,4]thiadiazole] |
| 2740 | > 10000 | > 10000 | > 10000 | > 10000 | > 10000 | > 10000 | > 10000 | 4640 | 2690 | 2770 | COc1cccc(-c2nn3c(-c4cc(OC)c(OC)c(OC)c4)nnc3s2)c1 [U, 6-(3-Methoxyphenyl)-3-(3,4,5-trimethoxyphenyl)-[1,2,4]triazolo[3,4-b][1,3,4]thiadiazole] |
| 607 | 661 | 505 | 387 | 482 | 469 | 400 | 559 | 500 | 123 | 379 | Cc1cccc(-c2nn3c(-c4ccc(Cl)cc4Cl)nnc3s2)c1 [K, 3-(2,4-Dichlorophenyl)-6-m-tolyl-[1,2,4]triazolo[3,4-b][1,3,4]thiadiazole] |
